# Experimental data from patent US7357913B2, “Methods for detecting, prognosing, or monitoring a disorder by comparing relative flux rates of two or more biological molecules in vivo” (The Regents of the University of California, priority 2003, dated 2008).
# “Also recorded” adds a separate entry of the source.
# B1: leptin: murine leptin (Amgen) infused subcutaneously by osmotic pump (protein, UniProt P41160 22-167, looked up)
# Leptin: VPIQKVQDDTKTLIKTIVTRINDISHTQSVSAKQRVTGLDFIPGLHPILSLSKMDQTLAVYQQVLTSLPSQNVLQIANDLENLRDLLHLLAFSKSCSLPQTSGLQKPESLDGVLEASLYSTEVVALSRLQGSLQDILQQLDVSPEC
# Columns and labels:
# [1] = tested on: EMT7 mouse mammary carcinoma cells; test: Tumor cell proliferation in EMT7 tumor-bearing mice, Gem and HU; assay type: in vivo; conditions: female balb/C nu/nu mice, EMT7 tumors; Gem 125 mg/kg every other day, HU 500 mg/kg daily; 5 days
# Description: Female balb/C nu/nu mice were implanted subcutaneously with approximately 106 EMT7 mouse mammary carcinoma cells in matrigel. Tumors were allowed to reach ca.1500 mm^3 in size. Mice were labeled with ^2H2O and treated with either 125mg/kg gemzar (gemcitabine or Gem) or 500 mg/kg hydroxyurea (HU). Gem was administered every other day; HU daily; and control saline daily. At the end of 5 days tumors were removed and cell proliferation was measured as described, supra.
# [2] = tested on: non-small cell lung carcinoma cells (SW1573); test: Tumor cell proliferation (de novo DNA synthesis, 2H2O labeling) in SW1573 xenograft mice, gemcitabine; assay type: in vivo, human; conditions: male balb/C nu/nu mice, SW1573 s.c. in matrigel, increasing doses every other day, 5 days
# Description: (§1) Male balb/C nu/nu mice were implanted subcutaneously with non-small cell lung carcinoma cells (SW1573) cells in matrigel. Mice were labeled with 2H2O and treated with increasing doses of gemcitabine (Gem), administered every other day (as shown in FIG. 9). After 5 days, tumor, colon and bone marrow were removed using techniques well known in the art, and as described, supra. Cell proliferation was measured as described, supra. […] De novo DNA synthesis from all three cell types was measured concurrently using the methods of the present invention. Briefly, heavy water (^2H2O) is administered to living organisms (8% ^2H2O in drinking water). DNA is isolated, hydrolyzed to free dNs, and deuterium incorporation into the deoxyribose (dR) moiety of purine and pyrimidine dNs is measured by gas chromatography/mass spectrometry (GC/MS) as described, supra.
# [3] = tested on: bone marrow cells; test: Bone marrow cell proliferation (de novo DNA synthesis, 2H2O labeling), gemcitabine study; assay type: in vivo, mouse; conditions: male balb/C nu/nu mice with SW1573, increasing doses every other day, 5 days
# Description: as §1
# [4] = tested on: colonocytes; test: Colonocyte proliferation (de novo DNA synthesis, 2H2O labeling), gemcitabine study; assay type: in vivo, mouse; conditions: male balb/C nu/nu mice with SW1573; for colon cell (colonocyte) proliferation: increasing doses every other day, 5 days
# Description: as §1
# [5] = tested on: total liver cell; test: Total liver cell proliferation (DNA synthesis) after CCl4; assay type: in vivo, mouse
# Description: SVJ mice were injected 2× weekly with 1.0 ml/kg or 0.25 mL/kg of CCl4 or vehicle for up to 4 weeks Cell proliferation was measured at 2, 7, 14, 21 and 28 days of ^2H2O administration and CCl4 treatment using the methods of the present invention as described, supra.
# [6] = tested on: liver collagen; test: Liver collagen synthesis (2H into hydroxyproline) after CCl4; assay type: in vivo, mouse
# Description: Liver collagen synthesis was measured concurrently (i.e., simultaneously) with de novo DNA synthesis in the same CCl4-treated SJV mice. Collagen was purified from 10 mg of fresh total liver homogenate as follows: using a Polytron homogenizer, collagen was isolated from soft tissue by homogenizing in 0.5 mL 100 mM NaOH. Under these conditions, collagen remains insoluble while most other proteins are readily dissolved. After centrifugation at 7,000 ×g for 10 minutes at 4° C., the supernatant was discarded. The pellet was washed briefly with 2 mL H2O and solubilized in reducing Laemmli sample buffer (Bio-Rad, Hercules, Calif.) after boiling for 3 minutes. The dissolved material was size-fractionated by SDS-PAGE. […]
# Acetone precipitated total liver protein and PVDF-bound collagen were hydrolyzed by treating with 6 N HCl, 16 hours at 110° C. […] Hydroxyproline was analyzed on a DB225 GC column, starting temp 100° C. increasing 10° C./min to 220° C. with selected ion monitoring of m/z 352,353.
# Hydroxyproline is a molecule of interest and is measured as OH-proline, the molecule being essentially unique to collagen. Because of this fact, total liver protein hydrolysate can be derivatized and the ^2H enrichment of hydroxyproline determined by GC/MS as described, supra. […]
# [7] = human, in vivo, po
# Description: (§2) The ^2H2O was administered orally. The initial priming dose was carried out in the General Clinical Research Center (GCRC) of SF General Hospital. Subjects received a total of 350-400 mL of ^2H2O in the GCRC, given as divided doses over the course of 18-21 hours (70 mL of 70% ^2H2O, given every 3-4 hours), to achieve about 1.0% enrichment in the body water pool. The ^2H2O was purchased from-Isotec, Inc. (Miamisburgh, Ohio) and dispensed in sterile containers. Subjects then took 50 mL of 70% ^2H2O three times a day for 5 days, then 35-50 mL twice-a-day for the remainder of the 8-10 week labeling protocol. This protocol achieves near-plateau body ^2H2O enrichments (1.5-2.0%, see below) within 5-7 days in most subjects and was well-tolerated. Subjects received the ^2H2O as individual aliquots (35-50 mL of 70% ^2H2O) in plastic vials, which were stored in the refrigerator.
# ^2H2O enrichments in body water were measured from plasma or urine. A 15-20 μL sample was reacted in an evacuated GC vial with calcium carbide to produce acetylene. The acetylene gas was then transferred with a syringe and injected into an evacuated GC vial containing 10% bromine in carbon tetrachloride and incubated at room temperature for 2 hours to produce tetrabromoethane. […] The tetrabromoethane, containing hydrogen atoms from body H2O, was then analyzed by GC/MS.
# [8] = Body water 2H2O enrichment in rats; assay type: in vivo, rat; conditions: rats maintained on 4% 2H2O in drinking water after i.p. priming bolus
# Description: ^2H2O labeling protocols in rodents consisted of an initial intraperitoneal priming bolus to 2.0-2.5% body water enrichment. The priming dose of ^2H2O (100%) was given to the rats (e.g., for a 225 g rat, 2% of 135 ml, or 2.7 ml, given in divided doses 1 hour apart) based on estimated 60% body weight as water, followed by administration of 4% ^2H2O in the drinking water. The 4% enrichment of ^2H2O in drinking water was chosen as a convenient dose that produces sufficient enrichments in biosynthetic products of interest and has no known toxicities. ^2H2O (70% and 100%) was purchased commercially from Cambridge Isotopes (Andover, Mass.). Drinking was ad-libitum. Rats were sacrificed by CO2 asphyxiation.
# Body water ^2H2O enrichments were measured serially. The steady state body ^2H2O enrichments attained in rats maintained on 4% ^2H2O in drinking water were approximately 3.0% and were stable over time in individual animals.
# [9] = Food intake and body weight under 2H2O treatment in mice; assay type: in vivo, mouse; conditions: ca. 2% body water enrichment then 4% 2H2O drinking water, 21 days
# Description: Mice were injected with ^2H2O (deuterated water) at a dose to achieve approximately 2% enrichment in the body water pool. The normal drinking water was then replaced with water enriched to 4% ^2H2O. ^2H2O treatment had no impact on food intake or body weight. Twenty-one days following the start of ^2H2O administration, mice were fasted for four hours, anesthetized with isoflurane and exsanguinated via heart puncture. When possible, urine was collected at the same time.
# [10] = Tolerability of oral 2H2O labeling protocol in human subjects; assay type: in vivo; conditions: 8-10 week labeling protocol
# Description: as §2
# [11] = tested on: adipose tissue; test: Adipose tissue dynamics (TG synthesis, de novo lipogenesis, adipocyte proliferation) in leptin treated ob/ob mice; assay type: in vivo, mouse
# Description: Four week old, female, C57/b16j mice (Jackson Labs Bar Harbor, […].) were divided into four groups: C57/b16j^+/? controls (con), ad libitum fed C57/b16j^lep-/lep-(ob/ob), leptin treated ob/ob (ob-lep) and food restricted ob/ob (ob-r). All mice were housed individually in hanging wire cages and given free access to water. The light cycle was on from noon to midnight and mean temperature was 73° F. Diets were from a purified formula with 1 g “dustless” pellets used for the ad lib fed animals and 45 mg for the food restricted ob/ob mice (Bio Serv, Frenchtown, N.J.). Mice were given 3 days to acclimate to the environment, during which time some weight loss was observed. After the acclimation period, food restriction or leptin treatment was begun and food intake and body weights were measured periodically. […]
# The percent of TG newly synthesized during the labeling period was calculated based on the precursor-product relationship, as described supra, using body water enrichment to estimate the maximal or asymptotic enrichment in TG-glycerol. The relationship between body water and the maximal TG-glycerol enrichment has been determined through combinatorial analysis (mass isotopomer distribution analysis MIDA) and by measurement of 100% replaced TG pools after long-term ^2H2O labeling. […] The fraction of TG which is newly synthesized is then calculated as: Fractional synthesis (f)=EM1/A1^∞. […]
molecule,measurement,setting,value
"Nc1ccn([C@@H]2O[C@H](CO)[C@@H](O)C2(F)F)c(=O)n1 [Gem, gemcitabine]",tumor cell proliferation relative to saline control,[1],caused reductions; also recorded: decreased
same,tumor cell proliferation,[2],inhibits
same,tumor cell proliferation,[2]; listed as gemcitabine,inhibited in tumor and bone marrow cells in a dose-response manner
same,bone marrow cell proliferation,[3],inhibits
same,bone marrow cell proliferation,[3]; listed as gemcitabine,inhibited in tumor and bone marrow cells in a dose-response manner
same,colon cell (colonocyte) proliferation,[4],relatively little effect
same,colon cell (colonocyte) proliferation,[4]; listed as gemcitabine,little inhibition
same,colonocyte proliferation at the lower experimental doses,[4]; lower experimental doses,may have a stimulatory effect
"ClC(Cl)(Cl)Cl [CCl4, carbon tetrachloride]",new liver cells present,[5]; after 4 weeks of repeated CCl4 dosing,~100%
same,total liver cell proliferation relative to vehicle control,"[5]; mice injected 2x weekly, both doses (1.0 ml/kg and 0.25 mL/kg), up to 4 weeks",significantly increased; also recorded: significant cell proliferation occurred at both doses
same,"liver collagen synthesis relative to vehicle control, high dose",[6]; high dose of CCl4 (1.0 ml/kg 2x weekly),significant collagen synthesis occurred only at the highest dose; also recorded: increased
same,"liver collagen synthesis relative to vehicle control, low dose",[6]; low dose of CCl4 (0.25 mL/kg 2x weekly),no effect
[2H]O[2H] [^2H2O],near-plateau body 2H2O enrichment,[7],1.5-2.0%
same,time to near-plateau body 2H2O enrichment,[7],5 to 7 days
same,steady state body 2H2O enrichment,[8],approximately 3.0%
same,impact on food intake or body weight,[9],no impact
same,tolerability of 2H2O protocol,[10],well-tolerated
"NC(=O)NO [HU, hydroxyurea]",tumor cell proliferation relative to saline control,[1],caused reductions; also recorded: decreased
B1,TG retained (body fat balance),[11]; leptin treated ob/ob mice,body fat was lost
same,"effect on de novo lipogenesis, adipogenesis and triglyceride synthesis in adipose tissue","[11]; ob/ob mice, murine leptin 2 μg/day s.c. osmotic pump, 21 days 2H2O",influenced all three pathways similarly
